In patent publication US8658568B2, “6-amino-2-substituted-5-vinylsilylpyrimidine-4-carboxylic acids and esters and 4-amino-6-substituted-3-vinylsilylpyridine-2-carboxylic acids and esters as herbicides” (Dow AgroSciences, LLC., priority 2011, dated 2014):

Columns and labels:
Format in all cases: in vivo
[1] = test system: CHEAL = lambsquarters (Chenopodium album); assay: Postemergence herbicidal activity, lambsquarters; settings: post-emergence, 336 h, post-emergent, visual score after 14 days (0 no injury, 100 complete kill), read-out: % Growth Reduction CHEAL; for pest or weed control at 140 g/ha: rate 140 g ai/ha; for pest or weed control at 280 g/ha: rate 280 g ai/ha
Experimental: (§1) Evaluation of Postemergence Herbicidal Activity
(§2) Seeds or nutlets of the desired test plant species were planted in Sun Gro MetroMix® 306 planting mixture, which typically has a pH of 6.0 to 6.8 and an organic matter content of about 30 percent, in plastic pots with a surface area of 64 square centimeters. When required to ensure good germination and healthy plants, a fungicide treatment and/or other chemical or physical treatment was applied. The plants were grown for 7-21 days in a greenhouse with an approximate 15 hour photoperiod which was maintained at about 23-29° C. during the day and 22-28° C. during the night. Nutrients and water were added on a regular basis and supplemental lighting was provided with overhead metal halide 1000-Watt lamps as necessary. The plants were employed for testing when they reached the first or second true leaf stage.
(§3) A weighed amount, determined by the highest rate to be tested, of each test compound was placed in a 25 mL glass vial and was dissolved in 4 mL of a 97:3 v/v (volume/volume) mixture of acetone and dimethyl sulfoxide (DMSO) to obtain concentrated stock solutions. […] The concentrated stock solutions obtained were diluted with 20 mL of an aqueous mixture containing acetone, water, isopropyl alcohol, DMSO, Atplus 411F crop oil concentrate, and Triton® X-155 surfactant in a 48.5:39:10:1.5:1.0:0.02 v/v ratio to obtain spray solutions containing the highest application rates. Additional application rates were obtained by serial dilution of 12 mL of the high rate solution into a solution containing 2 mL of 97:3 (v/v) mixture of acetone and dimethyl sulfoxide (DMSO) and 10 mL of an aqueous mixture containing acetone, water, isopropyl alcohol, DMSO, Atplus 411F crop oil concentrate, and Triton X-155 surfactant in a 48.5:39:10:1.5:1.0:0.02 (v/v) ratio to obtain 1/2 ×, 1/4 ×, 1/8× and 1/16× rates of the high rate. Compound requirements are based upon a 12 mL application volume at a rate of 187 L/ha. Formulated compounds were applied to the plant material with an overhead Mandel track sprayer equipped with a 8002E nozzles calibrated to deliver 187 L/ha over an application area of 0.503 square meters at a spray height of 18 inches (43 cm) above the average plant canopy height. Control plants were sprayed in the same manner with the solvent blank.
(§4) The treated plants and control plants were placed in a greenhouse as described above and watered by sub-irrigation to prevent wash-off of the test compounds. After 14 days, the condition of the test plants as compared with that of the untreated plants was determined visually and scored on a scale of 0 to 100 percent where 0 corresponds to no injury and 100 corresponds to complete kill
(§5) By applying the well-accepted probit analysis as described by J. Berkson in Journal of the […], 48, 565 (1953) and by D. Finney in “Probit Analysis” Cambridge University Press (1952), the above data can be used to calculate GR50 and GR80 values, which are defined as growth reduction factors that correspond to the effective dose of herbicide required to kill or control 50 percent or 80 percent, respectively, of a target plant.

[2] = test system: EPHHL = wild poinsettia (Euphorbia heterophylla); assay: Postemergence herbicidal activity, wild poinsettia; settings: post-emergence, 336 h, post-emergent, visual score after 14 days (0 no injury, 100 complete kill), read-out: % Growth Reduction EPHHL; for pest or weed control at 140 g/ha: rate 140 g ai/ha; for pest or weed control at 280 g/ha: rate 280 g ai/ha
Experimental: as §1, §2, §3, §4, §5

[3] = test system: HELAN = sunflower (Helianthus annuus); assay: Postemergence herbicidal activity, sunflower; settings: post-emergence, 336 h, post-emergent, visual score after 14 days (0 no injury, 100 complete kill), read-out: % Growth Reduction HELAN; for pest or weed control at 140 g/ha: rate 140 g ai/ha; for pest or weed control at 280 g/ha: rate 280 g ai/ha
Experimental: as §1, §2, §3, §4, §5

[4] = test system: ABUTH = velvetleaf (Abutilon theophrasti); assay: Postemergence herbicidal activity, velvetleaf; settings: post-emergence, 336 h, post-emergent, visual score after 14 days (0 no injury, 100 complete kill), read-out: % Growth Reduction ABUTH; for pest or weed control at 140 g/ha: rate 140 g ai/ha; for pest or weed control at 280 g/ha: rate 280 g ai/ha
Experimental: as §1, §2, §3, §4, §5

[5] = test system: ECHCG = barnyardgrass (Echinochloa crus-galli); assay: Postemergence herbicidal activity, barnyardgrass; settings: post-emergence, 336 h, post-emergent, visual score after 14 days (0 no injury, 100 complete kill), read-out: % Growth Reduction ECHCG; for pest or weed control at 140 g/ha: rate 140 g ai/ha; for pest or weed control at 280 g/ha: rate 280 g ai/ha
Experimental: as §1, §2, §3, §4, §5

[6] = test system: IPOHE = ivyleaf morningglory (Ipomoea hederacea); assay: Postemergence herbicidal activity, ivyleaf morningglory; settings: post-emergence, 336 h, post-emergent, visual score after 14 days (0 no injury, 100 complete kill), read-out: % Growth Reduction IPOHE; for pest or weed control at 140 g/ha: rate 140 g ai/ha; for pest or weed control at 280 g/ha: rate 280 g ai/ha
Experimental: as §1, §2, §3, §4, §5

[7] = test system: AMARE = redroot pigweed (Amaranthus retroflexus); assay: Postemergence herbicidal activity, redroot pigweed; settings: post-emergence, 336 h, post-emergent, rate 140 g ai/ha, visual score after 14 days (0 no injury, 100 complete kill), read-out: % Growth Reduction AMARE
Experimental: as §1, §2, §3, §4, §5

CCOC(=O)c1nc(C2CC2)nc(N)c1/C=C/[Si](C)(C)C [Compound 4, (E)-ethyl 6-amino-2-cyclopropyl-5-(2-(trimethylsilyl)vinyl)pyrimidine-4-carboxylate]
pest or weed control at 140 g/ha [1]: 100% | pest or weed control at 140 g/ha [2]: 100% | pest or weed control at 140 g/ha [3]: 0% | pest or weed control at 140 g/ha [4]: 0% | pest or weed control at 140 g/ha [5]: 0% | pest or weed control at 140 g/ha [6]: 100%

CCc1nc(C(=O)O)c(/C=C/[Si](C)(C)C)c(N)c1F [Compound 16, (E)-4-amino-6-ethyl-5-fluoro-3-(2-(trimethylsilyl)vinyl)picolinic acid]
pest or weed control at 280 g/ha [1]: 10% | pest or weed control at 280 g/ha [2]: 0% | pest or weed control at 280 g/ha [3]: 20% | pest or weed control at 280 g/ha [4]: 5% | pest or weed control at 280 g/ha [5]: 0% | pest or weed control at 280 g/ha [6]: 60%

C[Si](C)(C)/C=C/c1c(C(=O)O)nc(-c2ccc(Cl)c(F)c2)c(F)c1N [Compound 14, (E)-4-amino-6-(4-chloro-3-fluorophenyl)-5-fluoro-3-(2-(trimethylsilyl)vinyl)picolinic acid]
pest or weed control at 140 g/ha [1]: 100% | pest or weed control at 140 g/ha [2]: 100% | pest or weed control at 140 g/ha [3]: 80% | pest or weed control at 140 g/ha [4]: 65% | pest or weed control at 140 g/ha [5]: 70% | pest or weed control at 140 g/ha [6]: 80%

COC(=O)c1nc(-c2ccc(Cl)c(F)c2)c(F)c(N)c1/C=C/[Si](C)(C)C [Compound 11, (E)-methyl 4-amino-6-(4-chloro-3-fluorophenyl)-5-fluoro-3-(2-(trimethylsilyl)vinyl)picolinate]
pest or weed control at 140 g/ha [1]: 100% | pest or weed control at 140 g/ha [2]: 80% | pest or weed control at 140 g/ha [3]: 90% | pest or weed control at 140 g/ha [4]: 80% | pest or weed control at 140 g/ha [5]: 0% | pest or weed control at 140 g/ha [7]: 100% | pest or weed control at 140 g/ha [6]: 70%

COC(=O)c1nc(-c2ccc(Cl)c(F)c2F)nc(N)c1/C=C/[Si](C)(C)C [Compound 1, (E)-methyl 6-amino-2-(4-chloro-2,3-difluorophenyl)-5-(2-(trimethylsilyl)vinyl)pyrimidine-4-carboxylate]
pest or weed control at 140 g/ha [1]: 100% | pest or weed control at 140 g/ha [2]: 50% | pest or weed control at 140 g/ha [3]: 90% | pest or weed control at 140 g/ha [4]: 100% | pest or weed control at 140 g/ha [5]: 85% | pest or weed control at 140 g/ha [7]: 100% | pest or weed control at 140 g/ha [6]: 80%

C[Si](C)(C)/C=C/c1c(N)nc(C2CC2)nc1C(=O)O [Compound 8, (E)-6-amino-2-cyclopropyl-5-(2-(trimethylsilyl)vinyl)pyrimidine-4-carboxylic acid]
pest or weed control at 280 g/ha [1]: 65% | pest or weed control at 280 g/ha [2]: 100% | pest or weed control at 280 g/ha [3]: 65% | pest or weed control at 280 g/ha [4]: 0% | pest or weed control at 280 g/ha [5]: 0% | pest or weed control at 280 g/ha [6]: 78%

CCO[Si](/C=C/c1c(N)nc(-c2ccc(Cl)c(OC)c2F)nc1C(=O)OC)(OCC)OCC [Compound 9, (E)-methyl 6-amino-2-(4-chloro-2-fluoro-3-methoxyphenyl)-5-(2-(triethoxysilyl)vinyl)pyrimidine-4-carboxylate]
pest or weed control at 140 g/ha [1]: 100% | pest or weed control at 140 g/ha [2]: 100% | pest or weed control at 140 g/ha [3]: 90% | pest or weed control at 140 g/ha [4]: 100% | pest or weed control at 140 g/ha [5]: 80% | pest or weed control at 140 g/ha [6]: 80%

COc1c(Cl)ccc(-c2nc(N)c(/C=C/[Si](O)(O)O)c(C(=O)O)n2)c1F [Compound 10, (E)-6-amino-2-(4-chloro-2-fluoro-3-methoxyphenyl)-5-(2-(trihydroxysilyl)vinyl)pyrimidine-4-carboxylic acid]
pest or weed control at 140 g/ha [1]: 100% | pest or weed control at 140 g/ha [2]: 100% | pest or weed control at 140 g/ha [3]: 100% | pest or weed control at 140 g/ha [4]: 100% | pest or weed control at 140 g/ha [5]: 80% | pest or weed control at 140 g/ha [6]: 80%
